Test results taken from ChEMBL document CHEMBL4196088, “Induction of cell killing and autophagy by amphiphilic pyrrolidine derivatives on human pancreatic cancer cells” (Eur J Med Chem, 2018).
pIC50: −log10 of the molar value. Activity calls are given as the source filed them. The calls are words filed in the database; no cut-off is given here.

Key:
PK9 [1] = assay: Growth inhibition of human PK9 cells at 20 uM after 72 hrs by MTT assay; assay type: functional, cell-based
PANC-1 [2] = assay: Growth inhibition of human PANC1 cells at 20 uM after 72 hrs; assay type: functional, cell-based
SK-BR-3 = assay: Growth inhibition of human SKBR3 cells at 20 uM after 72 hrs; assay type: functional, cell-based
PANC-1 [3] = assay: Induction of apoptosis in human PANC1 cells assessed as accumulation at sub-G0/G1 phase at 10 uM after 48 hrs by propidium iodide staining based flow cytometry (reference value: 0.2 to 2.9%); assay type: functional
Fibroblast [4] = assay: Induction of apoptosis in human primary fibroblasts at 20 uM after 72 hrs by propidium iodide staining based flow cytometry (reference value: 6.7%); assay type: cell-based
Fibroblast [5] = assay: Induction of apoptosis in human primary fibroblasts assessed as accumulation at sub-G0/G1 phase at 10 uM after 72 hrs by propidium iodide staining based flow cytometry (reference value: 6.7%); assay type: cell-based
Fibroblast [6] = assay: Induction of apoptosis in human primary fibroblasts assessed as accumulation at sub-G0/G1 phase at 10 uM after 24 hrs by propidium iodide staining based flow cytometry (reference value: 4.8%); assay type: cell-based
PANC-1 [7] = assay: Induction of apoptosis in human PANC1 cells assessed as accumulation at sub-G0/G1 phase at 20 uM after 72 hrs by propidium iodide staining based flow cytometry (reference value: 1.6 to 3.2%); assay type: functional
PANC-1 [8] = assay: Induction of apoptosis in human PANC1 cells assessed as accumulation at sub-G0/G1 phase at 10 uM after 24 hrs by propidium iodide staining based flow cytometry (reference value: 0.6 to 0.7%); assay type: functional
[9] = Induction of apoptosis in HPNE cells assessed as accumulation at sub-G0/G1 phase at 10 uM after 72 hrs by propidium iodide staining based flow cytometry (reference value: 6.6%); assay type: cell-based; conditions: human
[10] = Induction of apoptosis in HPNE cells assessed as accumulation at sub-G0/G1 phase at 20 uM after 24 hrs by propidium iodide staining based flow cytometry (reference value: 0.6%); assay type: cell-based; conditions: human
Fibroblast [11] = assay: Induction of apoptosis in human primary fibroblasts at 20 uM after 48 hrs by propidium iodide staining based flow cytometry (reference value: 6.1%); assay type: cell-based
PK9 [12] = assay: Induction of apoptosis in human PK9 cells assessed as accumulation at sub-G0/G1 phase at 10 uM after 48 hrs by propidium iodide staining based flow cytometry (reference value: 3.8%); assay type: functional
PANC-1 [13] = assay: Induction of apoptosis in human PANC1 cells assessed as accumulation at sub-G0/G1 phase at 20 uM after 48 hrs by propidium iodide staining based flow cytometry (reference value: 0.2 to 2.9%); assay type: functional
PK9 [14] = assay: Induction of apoptosis in human PK9 cells assessed as accumulation at sub-G0/G1 phase at 10 uM after 24 hrs by propidium iodide staining based flow cytometry (reference value: 2.2%); assay type: functional
[15] = Induction of apoptosis in HPNE cells assessed as accumulation at sub-G0/G1 phase at 10 uM after 24 hrs by propidium iodide staining based flow cytometry (reference value: 0.6%); assay type: cell-based; conditions: human
Fibroblast [16] = assay: Induction of apoptosis in human primary fibroblasts assessed as accumulation at sub-G0/G1 phase at 10 uM after 48 hrs by propidium iodide staining based flow cytometry (reference value: 6.1%); assay type: cell-based
[17] = Induction of apoptosis in HPNE cells assessed as accumulation at sub-G0/G1 phase at 20 uM after 48 hrs by propidium iodide staining based flow cytometry (reference value: 0.7%); assay type: cell-based; conditions: human
PK9 [18] = assay: Induction of apoptosis in human PK9 cells assessed as accumulation at sub-G0/G1 phase at 20 uM after 72 hrs by propidium iodide staining based flow cytometry (reference value: 4%); assay type: functional
[19] = Induction of apoptosis in HPNE cells assessed as accumulation at sub-G0/G1 phase at 10 uM after 48 hrs by propidium iodide staining based flow cytometry (reference value: 0.7%); assay type: cell-based; conditions: human
PK9 [20] = assay: Induction of apoptosis in human PK9 cells assessed as accumulation at sub-G0/G1 phase at 20 uM after 24 hrs by propidium iodide staining based flow cytometry (reference value: 2.2%); assay type: functional
PANC-1 [21] = assay: Induction of apoptosis in human PANC1 cells assessed as accumulation at sub-G0/G1 phase at 20 uM after 24 hrs by propidium iodide staining based flow cytometry (reference value: 0.6 to 0.7%); assay type: functional
PK9 [22] = assay: Induction of apoptosis in human PK9 cells assessed as accumulation at sub-G0/G1 phase at 20 uM after 48 hrs by propidium iodide staining based flow cytometry (reference value: 3.8%); assay type: functional
PK9 [23] = assay: Induction of apoptosis in human PK9 cells assessed as accumulation at sub-G0/G1 phase at 10 uM after 72 hrs by propidium iodide staining based flow cytometry (reference value: 4%); assay type: functional
PANC-1 [24] = assay: Induction of apoptosis in human PANC1 cells assessed as accumulation at sub-G0/G1 phase at 10 uM after 72 hrs by propidium iodide staining based flow cytometry (reference value: 1.6 to 3.2%); assay type: functional
Fibroblast [25] = assay: Induction of apoptosis in human primary fibroblasts at 20 uM after 24 hrs by propidium iodide staining based flow cytometry (reference value: 4.8%); assay type: cell-based
[26] = Induction of apoptosis in HPNE cells assessed as accumulation at sub-G0/G1 phase at 20 uM after 72 hrs by propidium iodide staining based flow cytometry (reference value: 6.6%); assay type: cell-based; conditions: human
HeLa = assay: Growth inhibition of human HeLa cells after 72 hrs; assay type: functional, cell-based
BXPC-3 [27] = assay: Induction of apoptosis in human BxPC3 cells assessed as accumulation at sub-G0/G1 phase harboring pSFFV-Bcl-XL at 20 uM after 24 hrs by propidium iodide staining based flow cytometry (reference value: 1.2%); assay type: functional
BXPC-3 [28] = assay: Induction of apoptosis in human BxPC3 cells assessed as accumulation at sub-G0/G1 phase at 10 uM after 24 hrs by propidium iodide staining based flow cytometry (reference value: 1.8%); assay type: functional
BXPC-3 [29] = assay: Induction of apoptosis in human BxPC3 cells assessed as accumulation at sub-G0/G1 phase at 10 uM after 72 hrs by propidium iodide staining based flow cytometry (reference value: 3.4%); assay type: functional
BXPC-3 [30] = assay: Induction of apoptosis in human BxPC3 cells harboring pSFFV-Bcl-XL assessed as accumulation at sub-G0/G1 phase at 10 uM after 72 hrs by propidium iodide staining based flow cytometry (reference value: 2%); assay type: functional
BXPC-3 [31] = assay: Induction of apoptosis in human BxPC3 cells assessed as accumulation at sub-G0/G1 phase at 20 uM after 48 hrs by propidium iodide staining based flow cytometry (reference value: 2.8%); assay type: functional
BXPC-3 [32] = assay: Induction of apoptosis in human BxPC3 cells assessed as accumulation at sub-G0/G1 phase at 10 uM after 48 hrs by propidium iodide staining based flow cytometry (reference value: 2.8%); assay type: functional
BXPC-3 [33] = assay: Induction of apoptosis in human BxPC3 cells assessed as accumulation at sub-G0/G1 phase at 20 uM after 24 hrs by propidium iodide staining based flow cytometry (reference value: 2.3%); assay type: functional
BXPC-3 [34] = assay: Induction of apoptosis in human BxPC3 cells harboring pSFFV-Bcl-XL assessed as accumulation at sub-G0/G1 phase at 10 uM after 24 hrs by propidium iodide staining based flow cytometry (reference value: 1.5%); assay type: functional
BXPC-3 [35] = assay: Induction of apoptosis in human BxPC3 cells assessed as accumulation at sub-G0/G1 phase harboring pSFFV-Bcl-XL at 20 uM after 48 hrs by propidium iodide staining based flow cytometry (reference value: 1.3%); assay type: functional
BXPC-3 [36] = assay: Induction of apoptosis in human BxPC3 cells assessed as accumulation at sub-G0/G1 phase harboring pSFFV-Bcl-XL at 20 uM after 72 hrs by propidium iodide staining based flow cytometry (reference value: 1.3%); assay type: functional
BXPC-3 [37] = assay: Induction of apoptosis in human BxPC3 cells harboring pSFFV-Bcl-XL assessed as accumulation at sub-G0/G1 phase at 10 uM after 48 hrs by propidium iodide staining based flow cytometry (reference value: 1.9%); assay type: functional
BXPC-3 [38] = assay: Induction of apoptosis in human BxPC3 cells assessed as accumulation at sub-G0/G1 phase at 20 uM after 72 hrs by propidium iodide staining based flow cytometry (reference value: 3.4%); assay type: functional

Row | SMILES | growth inhibition (GI) (PK9 [1]) | growth inhibition (GI) (PANC-1 [2]) | growth inhibition (GI) (SK-BR-3) | Activity (PANC-1 [3]) | Activity (Fibroblast [5]) | Activity (Fibroblast [6]) | Activity (PANC-1 [7]) | Activity (PANC-1 [8]) | Activity [9] | Activity [10] | Activity (PK9 [12]) | Activity (PANC-1 [13]) | Activity (PK9 [14]) | Activity [15] | Activity (Fibroblast [16]) | Activity [17] | Activity (PK9 [18]) | Activity [19] | Activity (PK9 [20]) | Activity (PANC-1 [21]) | also measured
1 | CCCCCCCC/C=C\CCCCCCCCOC[C@@H]1[C@@H](O)[C@@H](O)CN1C(C)=O | inactive | inactive | Active | – | – | – | – | – | – | – | – | – | – | – | – | – | – | – | – | – | –
2 | Cl.O[C@H]1CN[C@H](COCCCCCCCCC/C=C/c2ccc(Oc3ccccc3)cc2)C1 | – | – | – | 25.3% | 6.5% | 9.8% | 56.1% | 11.5% | 88% | 62.4% | 10.8% | 49.5% | 4.3% | 67.1% | 6.6% | 86.8% | 27.8% | 86.1% | 20.6% | 8.9% | Activity (Fibroblast [4]): 82.1%; Activity (Fibroblast [11]): 87.9%; Activity (PK9 [22]): 23.1%; Activity (PK9 [23]): 5.4%; Activity (PANC-1 [24]): 35.1%; Activity (Fibroblast [25]): 75.1%; Activity [26]: 91.2%; pIC50 (HeLa): 5.44
3 | CCCCCCCC/C=C\CCCCCCCCOCC[C@H]1NC[C@H](O)[C@@H]1O | – | – | – | 3.9% | 9.2% | 8.7% | 22.6% | 4.7% | 62.8% | 63.8% | 3.4% | 13.6% | 2.8% | 12.1% | 8.2% | 67.5% | 37.7% | 22.2% | 8.3% | 5% | Activity (BXPC-3 [27]): 2.3%; Activity (BXPC-3 [28]): 4.6%; Activity (BXPC-3 [29]): 14.6%; Activity (BXPC-3 [30]): 3.1%; Activity (BXPC-3 [31]): 32.5%; Activity (BXPC-3 [32]): 11.5%; Activity (BXPC-3 [33]): 17.7%; Activity (BXPC-3 [34]): 3%; Activity (BXPC-3 [35]): 3.4%; Activity (BXPC-3 [36]): 4.1%; Activity (BXPC-3 [37]): 3.1%; Activity (PK9 [22]): 30.5%; Activity (PK9 [23]): 2.7%; Activity (PANC-1 [24]): 9.7%; Activity (BXPC-3 [38]): 46.2%; Activity [26]: 73%
4 | CCCCCCCC/C=C\CCCCCCCCOC[C@@H]1[C@@H](O)[C@@H](O)CN1CCCC | inactive | inactive | Active | – | – | – | – | – | – | – | – | – | – | – | – | – | – | – | – | – | –
5 | Cl.O[C@H]1CN[C@H](COCCCCCCCC/C=C/c2ccc(Oc3ccccc3)cc2)C1 | – | – | – | 21.8% | 8.1% | 9.1% | 43.8% | 12.9% | 85.9% | 66.6% | 7.4% | 33.7% | 3.5% | 42.8% | 6.5% | 87.5% | 48.7% | 72.9% | 30.1% | 14.7% | Activity (Fibroblast [4]): 72.7%; Activity (Fibroblast [11]): 74.8%; Activity (PK9 [22]): 46.5%; Activity (PK9 [23]): 6.9%; Activity (PANC-1 [24]): 28.2%; Activity (Fibroblast [25]): 40.1%; Activity [26]: 94.3%; pIC50 (HeLa): 5.41
6 | CCCCCCCC/C=C\CCCCCCCCOC[C@@H]1[C@@H](O)[C@@H](O)CN1C(C)C | inactive | inactive | Active | – | – | – | – | – | – | – | – | – | – | – | – | – | – | – | – | – | –
7 | CCCCCCCC/C=C\CCCCCCCCOC[C@@H]1[C@@H](O)[C@@H](O)CN1Cc1ccccc1 | inactive | inactive | Active | – | – | – | – | – | – | – | – | – | – | – | – | – | – | – | – | – | –
8 | CCCCCCCC/C=C\CCCCCCCCOC[C@@H]1[C@@H](O)[C@@H](O)CN1C | inactive | inactive | Active | – | – | – | – | – | – | – | – | – | – | – | – | – | – | – | – | – | –
9 | CCCCCCCC/C=C\CCCCCCCCOC[C@@H]1[C@@H](O)[C@@H](O)CN1C(N)=O | inactive | inactive | Active | – | – | – | – | – | – | – | – | – | – | – | – | – | – | – | – | – | –
